# Measurements: ChEMBL document CHEMBL3045154, “Synthesis and Insecticidal Activity of 1, 3-Dithianes” (1991)
# Key:
# Format in all cases: functional
# Tetranychus urticae = experiment: Insecticidal activity against Tetranychus urticae (two-spotted spider mite) in kidney bean plant leaf assessed as mortality at 500 ppm after 2 days; conditions: 48 h
# [1] = tested on: Henosepilachna vigintioctopunctata; experiment: Insecticidal activity against third-instar larvae of Henosepilachna vigintioctopunctata assessed as mortality at 100 ppm after 2 days; conditions: 48 h
# Chilo suppressalis = experiment: Insecticidal activity against 5th instar larva of Chilo suppressalis assessed as mortality at 50 ug/g after 48 hr
Compound,mortality at 500 ppm (Tetranychus urticae) [%],mortality at 100 ppm [1] [%],mortality (Chilo suppressalis) [%]
CN(C)C1CSCSC1,20,10,30
CC1SCC(N(C)C)CS1 (stereo unspecified),30,10,10
CN(C)C1CSC(C#N)(c2ccccc2)SC1 (stereo unspecified),100,30,100
CN(C)C1CSC(C#N)(c2ccc(Cl)cc2)SC1 (stereo unspecified),100,–,100
CN(C)C1CSC(C#N)(C(N)=O)SC1 (stereo unspecified),100,85,100
CNC(=O)C1(C#N)SCC(N(C)C)CS1 (stereo unspecified),100,85,100
N#CC1(C(=O)O)SCCCS1,0,–,0
N#CC1(c2ccc(Cl)cc2)SCCCS1,0,–,0
N#CC1(c2ccc(Cl)cc2)SCC(O)CS1 (stereo unspecified),30,–,0
O=C(c1ccccc1)C1(C(=O)c2ccccc2)SCC(O)CS1,40,–,0
CCOP(=S)(OCC)OC1CSC(C#N)(c2ccc(Cl)cc2)SC1 (stereo unspecified),40,–,0
CC(C)C(C(=O)OC1CSC(C#N)(c2ccc(Cl)cc2)SC1)c1ccc(Cl)cc1 (stereo unspecified),20,–,0
CNC(=O)OC1CSC(C#N)(c2ccc(Cl)cc2)SC1 (stereo unspecified),30,–,0
N#CC1(c2ccc(Cl)cc2)SCC(OC(=O)Nc2ccc(Cl)cc2)CS1 (stereo unspecified),60,–,0
CNC1CSC(C#N)(c2ccc(Cl)cc2)SC1 (stereo unspecified),30,–,10
CCN(CC)C1CSC(C#N)(c2ccc(Cl)cc2)SC1 (stereo unspecified),100,–,100
CCCCN(CCCC)C1CSC(C#N)(c2ccc(Cl)cc2)SC1 (stereo unspecified),100,–,50
N#CC1(c2ccc(Cl)cc2)SCC(N2CCCC2)CS1 (stereo unspecified),100,–,50
N#CC1(c2ccc(Cl)cc2)SCC(N2CCOCC2)CS1 (stereo unspecified),90,–,50

Compound,mortality at 500 ppm (Tetranychus urticae) [%],mortality at 100 ppm [1] [%],mortality (Chilo suppressalis) [%]
CCOC(=O)C1(C(=O)OCC)SCC(N(C)C)CS1,100,85,100
CCOC(=O)C1(C(C)=O)SCC(N(C)C)CS1 (stereo unspecified),100,30,100
CCOC(=O)C1(C(=O)c2ccccc2)SCC(N(C)C)CS1 (stereo unspecified),90,30,100
CC(=O)C1(C(C)=O)SCC(N(C)C)CS1,40,70,100
CC(=O)C1(C(=O)c2ccccc2)SCC(N(C)C)CS1 (stereo unspecified),80,35,100
CN(C)C1CSC(C(=O)c2ccccc2)(C(=O)c2ccccc2)SC1,80,100,100
CN(C)C1CSC(C(N)=O)(C(N)=O)SC1,60,100,100
CCOC(=O)C1(C#N)SCC(N(C)C)CS1 (stereo unspecified),100,60,100
CCN(CC)C(=S)SC1(C#N)SCC(N(C)C)CS1 (stereo unspecified),90,100,100
CCOP(=O)(OCC)C1(C#N)SCC(N(C)C)CS1 (stereo unspecified),100,5,100
CN(C)C1CSC(C#N)(C#N)SC1,90,100,100
CCCC1(C#N)SCC(N(C)C)CS1 (stereo unspecified),70,30,100
CCOC(=O)C1SCC(N(C)C)CS1 (stereo unspecified),100,45,80
CC(=O)C1SCC(N(C)C)CS1 (stereo unspecified),100,65,100
CN(C)C1CSC(C(=O)c2ccccc2)SC1 (stereo unspecified),50,80,100
CN(C)C1CSC(C#N)SC1 (stereo unspecified),80,30,100
C/C(=N\Nc1ccc(Br)cc1)C1SCC(N(C)C)CS1 (stereo unspecified),80,45,100
CN(C)C1CSSC1 [NEREISTOXIN],30,–,100
